Source: the NIST ThermoML archive (doi:10.1021/acs.jced.6b00718)

Experiment: xn = mol fraction of the nth substance listed
Settings: Liquid; for electrical conductivity: Alternating current cell with electrodes; for viscosity: Falling or rolling sphere viscometry; for mass density: Vibrating tube method

N#CCCCCC#N [hexanedinitrile] + CCCC[N+]1(C)CCCC1.O=S(=O)([N-]S(=O)(=O)C(F)(F)F)C(F)(F)F
101 kPa
Settings	electrical conductivity [S/m]	mass density [kg/m3]	viscosity [mPa·s]
291.8 K, x2 = 0.2889	0.495	–	–
293.15 K, x2 = 0	–	962.3	7.17
293.15 K, x2 = 0.1002	–	1063.5	9.85
293.15 K, x2 = 0.1996	–	1138	13.22
293.15 K, x2 = 0.3004	–	1196.8	17.56
293.15 K, x2 = 0.3995	–	1243	25.01
293.15 K, x2 = 0.5001	–	1281.6	31
293.15 K, x2 = 0.6	–	1313.1	37.48
293.15 K, x2 = 0.7011	–	1340	48.32
293.15 K, x2 = 0.7996	–	1362.5	59.96
293.15 K, x2 = 0.8997	–	1382.3	77.23
295.2 K, x2 = 0.2889	0.551	–	–
298.15 K, x2 = 0	–	958.6	6.31
298.15 K, x2 = 0.1002	–	1059.5	8.45
298.15 K, x2 = 0.1996	–	1133.9	11.27
298.15 K, x2 = 0.3004	–	1192.5	14.79
298.15 K, x2 = 0.3995	–	1238.7	21.46
298.15 K, x2 = 0.5001	–	1277.3	25.62
298.15 K, x2 = 0.6	–	1308.6	30.92
298.15 K, x2 = 0.7011	–	1335.6	39.22
298.15 K, x2 = 0.7996	–	1358.2	48.21
298.15 K, x2 = 0.8997	–	1378	61.49
299.3 K, x2 = 0.2889	0.62	–	–
303.15 K, x2 = 0	–	954.8	5.53
303.15 K, x2 = 0.1002	–	1055.6	7.35
303.15 K, x2 = 0.1996	–	1129.8	9.71
303.15 K, x2 = 0.3004	–	1188.3	12.61
303.15 K, x2 = 0.3995	–	1234.4	18.54
303.15 K, x2 = 0.5001	–	1272.9	21.53
303.15 K, x2 = 0.6	–	1304.2	25.59
303.15 K, x2 = 0.7011	–	1331.2	32.33
303.15 K, x2 = 0.7996	–	1353.8	39.41
303.15 K, x2 = 0.8997	–	1373.5	49.74
303.9 K, x2 = 0.2889	0.702	–	–
313.15 K, x2 = 0	–	947.2	4.54
313.15 K, x2 = 0.1002	–	1047.6	5.72
313.15 K, x2 = 0.1996	–	1121.5	7.43
313.15 K, x2 = 0.3004	–	1179.9	9.44
313.15 K, x2 = 0.3995	–	1225.8	14.05
313.15 K, x2 = 0.5001	–	1264.2	15.63
313.15 K, x2 = 0.6	–	1295.3	18.34
313.15 K, x2 = 0.7011	–	1322.3	22.83
313.15 K, x2 = 0.7996	–	1344.8	27.42
313.15 K, x2 = 0.8997	–	1364.5	34.01
313.4 K, x2 = 0.2889	0.9	–	–
322.2 K, x2 = 0.2889	1.1	–	–
323.15 K, x2 = 0	–	939.8	3.73
323.15 K, x2 = 0.1002	–	1039.8	4.53
323.15 K, x2 = 0.1996	–	1113.4	5.86
323.15 K, x2 = 0.3004	–	1171.6	7.32
323.15 K, x2 = 0.3995	–	1217.3	10.01
323.15 K, x2 = 0.5001	–	1255.6	11.82
323.15 K, x2 = 0.6	–	1286.7	13.7
323.15 K, x2 = 0.7011	–	1313.6	16.83
323.15 K, x2 = 0.7996	–	1336	19.97
323.15 K, x2 = 0.8997	–	1355.6	24.42
332.9 K, x2 = 0.2889	1.37	–	–
333.15 K, x2 = 0	–	932.3	3.02
333.15 K, x2 = 0.1002	–	1031.9	3.74
333.15 K, x2 = 0.1996	–	1105.4	4.8
333.15 K, x2 = 0.3004	–	1163.3	5.87
333.15 K, x2 = 0.3995	–	1206.3	7.86
333.15 K, x2 = 0.5001	–	1246.8	9.21
333.15 K, x2 = 0.6	–	1277.9	10.59
333.15 K, x2 = 0.7011	–	1304.7	12.85
333.15 K, x2 = 0.7996	–	1326.7	15.09
333.15 K, x2 = 0.8997	–	1346.3	18.22

N#CCCCC#N [pentanedinitrile] + CCCC[N+]1(C)CCCC1.O=S(=O)([N-]S(=O)(=O)C(F)(F)F)C(F)(F)F
Settings	electrical conductivity, 100 kPa [S/m]	mass density, 101 kPa [kg/m3]	viscosity, 101 kPa [mPa·s]
292.9 K, x2 = 0.2589	0.572	–	–
293.15 K, x2 = 0	–	987	6.97
293.15 K, x2 = 0.1003	–	1094.2	9.92
293.15 K, x2 = 0.1997	–	1167.5	13.34
293.15 K, x2 = 0.2999	–	1222.5	17.57
293.15 K, x2 = 0.4002	–	1266.7	22.88
293.15 K, x2 = 0.5006	–	1300.5	28.92
293.15 K, x2 = 0.6003	–	1327.5	38.47
293.15 K, x2 = 0.6998	–	1349.1	48.33
293.15 K, x2 = 0.8004	–	1368.5	61.37
293.15 K, x2 = 0.9002	–	1385.4	78.19
297.4 K, x2 = 0.2589	0.651	–	–
298.15 K, x2 = 0	–	983.1	6.12
298.15 K, x2 = 0.1003	–	1090.3	8.55
298.15 K, x2 = 0.1997	–	1163.3	11.42
298.15 K, x2 = 0.2999	–	1218.1	14.81
298.15 K, x2 = 0.4002	–	1262.2	19.17
298.15 K, x2 = 0.5006	–	1296.1	23.95
298.15 K, x2 = 0.6003	–	1323.1	31.5
298.15 K, x2 = 0.6998	–	1344.8	39.56
298.15 K, x2 = 0.8004	–	1364.3	49.4
298.15 K, x2 = 0.9002	–	1380.9	62.15
303.15 K, x2 = 0	–	979.1	5.39
303.15 K, x2 = 0.1003	–	1086.2	7.42
303.15 K, x2 = 0.1997	–	1159	9.83
303.15 K, x2 = 0.2999	–	1213.8	12.69
303.15 K, x2 = 0.4002	–	1257.9	16.22
303.15 K, x2 = 0.5006	–	1291.7	20.1
303.15 K, x2 = 0.6003	–	1318.6	26.13
303.15 K, x2 = 0.6998	–	1340.3	32.56
303.15 K, x2 = 0.8004	–	1359.8	40.38
303.15 K, x2 = 0.9002	–	1376.4	50.27
304.3 K, x2 = 0.2589	0.782	–	–
313.15 K, x2 = 0	–	971.2	4.25
313.15 K, x2 = 0.1003	–	1077.9	5.78
313.15 K, x2 = 0.1997	–	1150.5	7.46
313.15 K, x2 = 0.2999	–	1205.1	9.52
313.15 K, x2 = 0.4002	–	1249	11.97
313.15 K, x2 = 0.5006	–	1282.8	14.66
313.15 K, x2 = 0.6003	–	1309.7	18.67
313.15 K, x2 = 0.6998	–	1331.3	22.97
313.15 K, x2 = 0.8004	–	1350.8	28.01
313.15 K, x2 = 0.9002	–	1367.2	34.37
314.5 K, x2 = 0.2589	1	–	–
323.15 K, x2 = 0	–	963.4	3.47
323.15 K, x2 = 0.1003	–	1069.7	4.6
323.15 K, x2 = 0.1997	–	1142	5.84
323.15 K, x2 = 0.2999	–	1196.5	7.39
323.15 K, x2 = 0.4002	–	1240.3	9.16
323.15 K, x2 = 0.5006	–	1274	11.11
323.15 K, x2 = 0.6003	–	1300.9	13.88
323.15 K, x2 = 0.6998	–	1322.5	16.93
323.15 K, x2 = 0.8004	–	1342	18.72
323.15 K, x2 = 0.9002	–	1358.2	24.65
323.2 K, x2 = 0.2589	1.21	–	–
333.15 K, x2 = 0	–	955.6	2.88
333.15 K, x2 = 0.1003	–	1061.5	3.72
333.15 K, x2 = 0.1997	–	1133.7	4.71
333.15 K, x2 = 0.2999	–	1188	5.85
333.15 K, x2 = 0.4002	–	1231.7	7.27
333.15 K, x2 = 0.5006	–	1265.2	8.67
333.15 K, x2 = 0.6003	–	1291.9	10.69
333.15 K, x2 = 0.6998	–	1313.8	13.01
333.15 K, x2 = 0.8004	–	1333	14.2
333.15 K, x2 = 0.9002	–	–	18.39
336 K, x2 = 0.2589	1.55	–	–
